# Source: patent US9376429B2, “Sodium channel blockers, preparation method thereof and use thereof” (Daewoong Pharmaceutical Co., Ltd., priority 2012, dated 2016)
# pIC50: −log10 of the molar value.
# Test system: not given
# Experiment: not given
# Settings: neuropathic pain patients; cited from earlier work
row,Compound,effective for share of the patients
1,NCC1(CC(=O)O)CCCCC1 [gabapentin],60%

# Biological target: T1, sodium ion channel (Nav1.7) (Homo sapiens, UniProt Q15858)
# T1 construct: host or cells: HEK293
# T1 sequence (Q15858 whole entry): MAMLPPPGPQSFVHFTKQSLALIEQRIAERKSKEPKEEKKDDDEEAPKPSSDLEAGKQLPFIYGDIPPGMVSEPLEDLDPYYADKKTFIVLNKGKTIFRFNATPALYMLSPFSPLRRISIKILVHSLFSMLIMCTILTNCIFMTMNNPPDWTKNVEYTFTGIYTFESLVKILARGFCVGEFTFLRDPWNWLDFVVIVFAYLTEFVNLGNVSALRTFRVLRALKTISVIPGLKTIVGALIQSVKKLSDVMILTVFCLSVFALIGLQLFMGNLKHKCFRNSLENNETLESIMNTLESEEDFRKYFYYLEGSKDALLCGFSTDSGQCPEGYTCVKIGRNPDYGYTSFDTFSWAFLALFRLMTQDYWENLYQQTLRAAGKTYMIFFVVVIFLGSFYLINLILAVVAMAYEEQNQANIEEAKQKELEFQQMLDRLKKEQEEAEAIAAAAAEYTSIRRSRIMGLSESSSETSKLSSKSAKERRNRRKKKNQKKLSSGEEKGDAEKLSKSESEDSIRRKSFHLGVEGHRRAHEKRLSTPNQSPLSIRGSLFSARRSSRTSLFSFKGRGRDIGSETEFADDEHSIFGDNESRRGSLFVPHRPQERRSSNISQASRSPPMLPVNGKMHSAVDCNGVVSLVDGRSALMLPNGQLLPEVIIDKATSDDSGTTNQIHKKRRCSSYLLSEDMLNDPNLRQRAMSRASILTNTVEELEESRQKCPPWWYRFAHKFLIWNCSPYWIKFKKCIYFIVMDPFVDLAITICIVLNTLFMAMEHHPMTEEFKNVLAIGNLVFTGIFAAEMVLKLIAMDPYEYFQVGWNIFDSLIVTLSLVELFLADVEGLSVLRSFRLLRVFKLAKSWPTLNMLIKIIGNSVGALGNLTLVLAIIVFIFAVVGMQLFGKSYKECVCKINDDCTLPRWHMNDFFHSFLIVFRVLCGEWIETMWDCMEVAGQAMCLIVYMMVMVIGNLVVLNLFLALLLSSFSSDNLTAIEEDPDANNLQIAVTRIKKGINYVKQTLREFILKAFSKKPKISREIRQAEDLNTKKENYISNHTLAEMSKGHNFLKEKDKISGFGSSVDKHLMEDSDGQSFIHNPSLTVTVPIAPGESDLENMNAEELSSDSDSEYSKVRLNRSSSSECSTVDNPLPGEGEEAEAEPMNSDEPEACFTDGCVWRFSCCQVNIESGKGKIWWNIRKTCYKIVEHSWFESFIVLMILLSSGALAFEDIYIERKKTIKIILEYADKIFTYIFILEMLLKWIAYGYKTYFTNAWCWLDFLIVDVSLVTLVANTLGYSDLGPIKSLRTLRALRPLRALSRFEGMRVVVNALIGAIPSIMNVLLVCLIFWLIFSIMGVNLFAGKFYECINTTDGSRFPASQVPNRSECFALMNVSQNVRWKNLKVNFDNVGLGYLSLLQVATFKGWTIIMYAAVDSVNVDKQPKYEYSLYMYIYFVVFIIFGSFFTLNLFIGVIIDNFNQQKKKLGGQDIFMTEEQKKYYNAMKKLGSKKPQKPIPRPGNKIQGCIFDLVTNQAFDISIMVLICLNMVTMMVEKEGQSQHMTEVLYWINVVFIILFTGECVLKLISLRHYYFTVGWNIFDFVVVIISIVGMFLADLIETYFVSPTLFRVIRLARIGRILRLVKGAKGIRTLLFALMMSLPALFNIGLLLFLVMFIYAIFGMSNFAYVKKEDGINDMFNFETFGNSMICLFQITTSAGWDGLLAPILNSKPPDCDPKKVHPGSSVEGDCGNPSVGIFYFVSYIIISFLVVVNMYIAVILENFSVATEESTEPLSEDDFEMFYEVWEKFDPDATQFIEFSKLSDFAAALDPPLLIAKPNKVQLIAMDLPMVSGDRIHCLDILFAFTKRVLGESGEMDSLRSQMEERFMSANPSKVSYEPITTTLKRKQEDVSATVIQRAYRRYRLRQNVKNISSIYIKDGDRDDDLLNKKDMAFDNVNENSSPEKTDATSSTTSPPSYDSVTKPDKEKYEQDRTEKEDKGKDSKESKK
# Experiment: Blocking effect against sodium ion channel (Nav1.7), IonFlux16 auto patch clamp, hNav1.7 HEK293 cells
# Format: cell-based
# Settings: peak current after 50 seconds treatment, eight concentrations
# Outline: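 HEK293 cells stably expressing human Nav1.7 were recorded by IonFlux16 automated patch clamp in extracellular solution (pH 7.45, final DMSO ≤0.3%). Peak current was measured after 50 s exposure to each of eight compound concentrations and expressed as percent inhibition relative to pre-compound current.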
row,Compound,pIC50
1,"Cn1cc(-c2cc(-c3ccccc3)ncc2Oc2ccc(S(=O)(=O)Nc3nccs3)cc2C#N)cn1 [Example 38, 3-cyano-4-((4-(1-methyl-1H-pyrazol-4-yl)-6-phenylpyridin-3-yl)oxy)-N-(thiazol-2-yl)benzenesulfonamide]",< 7.00
2,"Cn1nccc1-c1cc(-c2ccccc2)ncc1Oc1ccc(S(=O)(=O)Nc2ncns2)cc1C#N [Example 4, 3-cyano-4-((4-(1-methyl-1H-pyrazol-5-yl)-6-phenylpyridin-3-yl)oxy)-N-(1,2,4-thiadiazol-5-yl)benzenesulfonamide]",7.00 to 7.29
3,"Cn1nccc1-c1cc(-c2ccc(F)nc2)ncc1Oc1ccc(S(=O)(=O)Nc2nccs2)cc1C#N [Example 19, 3-cyano-4-((6′-fluoro-4-(1-methyl-1H-pyrazol-5-yl)-[2,3′-bipyridin]-5-yl)oxy)-N-(thiazol-2-yl)benzenesulfonamide]",< 7.00
4,"N#Cc1cc(S(=O)(=O)Nc2nccs2)ccc1Oc1cnc(-c2ccccc2)cc1-c1ccncc1 [Example 40, 3-cyano-4-((6-phenyl-[4,4′-bipyridin]-3-yl)oxy)-N-(thiazol-2-yl)benzenesulfonamide]",< 7.00
5,"O=S(=O)(Nc1nccs1)c1ccc(Oc2cnc(-c3ccc(F)nc3)cc2-c2ccoc2)c(F)c1 [Example 48, 3-fluoro-4-((6′-fluoro-4-(furan-3-yl)-[2,3′-bipyridin]-5-yl)oxy)-N-(thiazol-2-yl)benzenesulfonamide]",< 7.00
6,"N#Cc1cc(S(=O)(=O)Nc2cscn2)ccc1Oc1cnc(-c2ccc(F)cc2)cc1-c1cn[nH]c1 [Example 90, 3-cyano-4-((6-(4-fluorophenyl)-4-(1H-pyrazol-4-yl)pyridin-3-yl)oxy)-N-(thiazol-4-yl)benzenesulfonamide]",< 7.00
7,"O=S(=O)(Nc1nccs1)c1ccc(C(O)c2ccc(-c3cccnc3F)cc2-c2ccoc2)cc1 (stereo not drawn) [Example 150, 4-((4-(2-fluoropyridin-3-yl)-2-(furan-3-yl)phenyl)(hydroxy)methyl)-N-(thiazol-2-yl)benzenesulfonamide]",< 7.00
8,"N#Cc1cc(S(=O)(=O)Nc2nccs2)ccc1Oc1ccc(-c2cncnc2)nc1-c1ccoc1 [Example 106, 3-cyano-4-((2-(furan-3-yl)-6-(pyrimidin-5-yl)pyridin-3-yl)oxy)-N-(thiazol-2-yl)benzenesulfonamide]",< 7.00
9,"O=S(=O)(Nc1cscn1)c1cc(Cl)c(Oc2cnc(-c3cccc(F)c3)cc2-c2ccnc(N3CCCCC3)c2)cc1F [Example 102, 5-chloro-2-fluoro-4-((6-(3-fluorophenyl)-2′-(piperidin-1-yl)-[4,4′-bipyridin]-3-yl)oxy)-N-(thiazol-4-yl)benzenesulfonamide]",< 7.00
10,"N#Cc1cc(S(=O)(=O)Nc2cscn2)ccc1Oc1cnc(-c2ccc(F)c(F)c2)cc1-c1cccnc1 [Example 85, 3-cyano-4-((6′-(3,4-difluorophenyl)-[3,4′-bipyridin]-3′-yl)oxy)-N-(thiazol-4-yl)benzenesulfonamide]",< 7.00
11,"O=S(=O)(Nc1nccs1)c1cc(Cl)c(Oc2cnc(-c3cccc(F)c3)cc2-c2cccnc2)cc1F [Example 73, 5-chloro-2-fluoro-4-((6′-(3-fluorophenyl)-[3,4′-bipyridin]-3′-yl)oxy)-N-(thiazol-2-yl)benzenesulfonamide]",< 7.00
12,"N#Cc1cc(S(=O)(=O)Nc2nccs2)ccc1Oc1cnc(-c2ccccc2)cc1-c1cn[nH]c1 [Example 39, 3-cyano-4-((6-phenyl-4-(1H-pyrazol-4-yl)pyridin-3-yl)oxy)-N-(thiazol-2-yl)benzenesulfonamide]",7.00 to 7.29
13,"Cn1cc(-c2cc(-c3ccc(F)c(F)c3)ncc2Oc2cc(F)c(S(=O)(=O)Nc3cscn3)cc2Cl)cn1 [Example 67, 5-chloro-4-((6-(3,4-difluorophenyl)-4-(1-methyl-1H-pyrazol-4-yl)pyridin-3-yl)oxy)-2-fluoro-N-(thiazol-4-yl)benzenesulfonamide 2,2,2-trifluoroacetate]",< 7.00
14,"O=S(=O)(Nc1nccs1)c1ccc(C(O)c2ccc(-c3ccc(F)cc3)cc2-c2ccoc2)cc1 (stereo not drawn) [Example 154, 4-((4′-fluoro-3-(furan-3-yl)-[1,1′-biphenyl]-4-yl)(hydroxy)methyl)-N-(thiazol-2-yl)benzenesulfonamide]",< 7.00
15,"Cn1nccc1-c1cc(-c2cccc(F)c2)ncc1Oc1cc(F)c(S(=O)(=O)Nc2cscn2)cc1Cl [Example 71, 5-chloro-2-fluoro-4-((6-(3-fluorophenyl)-4-(1-methyl-1H-pyrazol-5-yl)pyridin-3-yl)oxy)-N-(thiazol-4-yl)benzenesulfonamide]",< 7.00
16,"N#Cc1cc(S(=O)(=O)Nc2nccs2)ccc1Oc1cnc(-c2ccccc2)cc1-c1cccnc1 [Example 33, 3-cyano-4-((6′-phenyl-[3,4′-bipyridin]-3′-yl)oxy)-N-(thiazol-2-yl)benzenesulfonamide]",< 7.00
17,"O=S(=O)(Nc1nccs1)c1ccc(C(O)c2ccc(Cl)cc2-c2ccncc2)c(F)c1 (stereo not drawn) [Example 146, 4-((4-chloro-2-(pyridin-4-yl)phenyl)(hydroxy)methyl)-3-fluoro-N-(thiazol-2-yl)benzenesulfonamide]",< 7.00
18,"N#Cc1cc(S(=O)(=O)Nc2nccs2)ccc1Oc1cnc(-c2ccccc2)cc1-c1cnn(C2CC2)c1 [Example 44, 3-cyano-4-((4-(1-cyclopropyl-1H-pyrazol-4-yl)-6-phenylpyridin-3-yl)oxy)-N-(thiazol-2-yl)benzenesulfonamide]",< 7.00
19,"Cn1cc(-c2nc(-c3ccc(F)nc3F)ccc2Oc2ccc(S(=O)(=O)Nc3nccs3)cc2C#N)cn1 [Example 126, 3-cyano-4-((2′,6′-difluoro-6-(1-methyl-1H-pyrazol-4-yl)-[2,3′-bipyridin]-5-yl)oxy)-N-(thiazol-2-yl)benzenesulfonamide]",< 7.00
20,"N#Cc1cc(S(=O)(=O)Nc2cscn2)ccc1Oc1cnc(-c2ccc(F)c(F)c2)cc1-c1cncnc1 [Example 93, 3-cyano-4-((6-(3,4-difluorophenyl)-4-(pyrimidin-5-yl)pyridin-3-yl)oxy)-N-(thiazol-4-yl)benzenesulfonamide]",< 7.00
21,"O=S(=O)(Nc1nccs1)c1ccc(C(O)c2cccnc2-c2ccccc2)c(F)c1 (stereo not drawn) [Example 157, 3-fluoro-4-(hydroxy(2-phenylpyridin-3-yl)methyl)-N-(thiazol-2-yl)benzenesulfonamide]",< 7.00
22,"N#Cc1cc(S(=O)(=O)Nc2nccs2)ccc1Oc1ccc(-c2ccnc(F)c2)nc1-c1ccoc1 [Example 112, 3-cyano-4-((2′-fluoro-6-(furan-3-yl)-[2,4′-bipyridin]-5-yl)oxy)-N-(thiazol-2-yl)benzenesulfonamide]",7.00 to 7.29
23,"O=S(=O)(Nc1cscn1)c1cc(F)c(Oc2cnc(-c3ccc(F)c(F)c3)cc2-c2cccnc2)cc1F [Example 88, 4-((6′-(3,4-difluorophenyl)-[3,4′-bipyridin]-3′-yl)oxy)-2,5-difluoro-N-(thiazol-4-yl)benzenesulfonamide]",< 7.00
24,"O=S(=O)(Nc1cscn1)c1cc(Cl)c(Oc2cnc(-c3ccc(F)nc3)cc2-c2ccoc2)cc1F [Example 57, 5-chloro-2-fluoro-4-((6′-fluoro-4-(furan-3-yl)-[2,3′-bipyridin]-5-yl)oxy)-N-(thiazol-4-yl)benzenesulfonamide]",< 7.00
25,"N#Cc1cc(S(=O)(=O)Nc2nccs2)ccc1Oc1ccc(-c2cccnc2F)nc1-c1ccoc1 [Example 103, 3-cyano-4-((2′-fluoro-6-(furan-3-yl)-[2,3′-bipyridin]-5-yl)oxy)-N-(thiazol-2-yl)benzenesulfonamide]",< 7.00
26,"Cn1nccc1-c1nc(-c2ccsc2)ccc1Oc1ccc(S(=O)(=O)Nc2nccs2)cc1C#N [Example 119, 3-cyano-4-((2-(1-methyl-1H-pyrazol-5-yl)-6-(thiophen-3-yl)pyridin-3-yl)oxy)-N-(thiazol-2-yl)benzenesulfonamide]",7.00 to 7.29
